Source: paper PMC8880129, “Plant- and Bacteria-Derived Compounds with Anti-Philasterides dicentrarchi Activity” (Pathogens, 2022)
Read-outs that look alike come from different tables or passages of the source.

Columns and labels:
[1] = tested on: Philasterides dicentrarchi; assay: Anticiliate activity, ciliates maintained in seawater (LC100, LC50); type: cell-based; conditions: 3 h incubation
Experimental: All experiments were carried out in triplicate.

[2] = tested on: Philasterides dicentrarchi; assay: microbe, parasite or virus in culture; conditions: for Ciliate Mortality 3 h (%) / parasites killed after 24 h / Growth Inhibition 24 h (%): 100 μM, culture medium; for Ciliate Mortality 3 h (%) / Growth Inhibition 24 h (%): mean ± SD of three replicates; for mortality at 100 µM / GI50 / inhibition at 100 µM: Philasterides dicentrarchi; for Ciliate Mortality 3 h (%) / mortality at 100 µM: 3 h
Experimental: P. dicentrarchi (isolate I1), obtained from an outbreak of scuticociliatosis in cultured turbot in Galicia, was routinely cultured at 18 °C in complete sterile L15 medium (Leibovitz, PAA Laboratories GmbH, 1% salinity, pH 7.2) containing 90 mg/L each of adenosine, cytidine, and uridine, 150 mg/L of guanosine, 5 g/L of glucose, 400 mg/L of L-α-phosphatidylcholine, 200 mg/L of Tween 80, 10% of heat-inactivated foetal bovine serum (FBS), and 10 mL/L of 100X antibiotic–antimycotic solution (100 units/mL of penicillin G, 0.1 mg/mL of streptomycin sulphate and 0.25 mg/mL of amphotericin B), as previously described. Alternatively, ciliates were cultured in seawater with autoclaved marine bacteria (10^6 cells/mL) supplied as food at 21 °C. The ciliates were cultured under normoxic conditions in tissue culture flasks fitted with vented caps that enabled aeration of the culture medium.
We tested the toxicity to P. dicentrarchi of 26 compounds of natural origin (Table 1). The compounds were prepared in 10 mM stock solutions in dimethyl sulfoxide (DMSO) and maintained at −20 °C until use. In addition, the Pseudomonas H6 lipopeptide surfactant (PS) was prepared, lyophilised and stored at −20 °C [37]. A stock solution of PS was prepared in distilled water (1000 ppm) and diluted in culture medium or seawater at the final concentrations used in each assay and sterile filtered (through 0.2 µm filters) before being added to the parasites or EPC cells.
The anticiliate activity was assayed as previously described, with minor modifications. Ciliates were concentrated by centrifugation at 650× g for 5 min and resuspended in a medium at the concentration required for the assays. All experiments were carried out in triplicate. Wells containing ciliates in a culture medium or seawater without the test compounds were assayed as negative controls. To rule out any possible effects of the solvent (DMSO), triplicate wells with a culture medium or seawater containing the highest concentration of DMSO used (up to 1%) were also included. […] In these assays, the compounds were diluted in 1 mL of culture medium or seawater and added to the wells of 24-well sterile culture plates containing 2.5 × 10^4 ciliates per well, at final concentrations of […], 6.25, 12.5, 25, 50, and 100 µM in culture medium. The effects of the compounds on the motility and morphology of the ciliates were monitored periodically (at 30 min, 1, 2, 3, 24, and 48 h) under an inverted optical microscope. Ciliates were considered dead when they lysed and were not motile. The results obtained are expressed as percentage mortality for each experimental group. To estimate the total number of ciliates per well, the ciliates were inactivated by adding 0.25% glutaraldehyde and counted in a haemocytometer under an optical microscope. The lowest dose of the selected compounds resulting in 100% ciliate mortality (LC100) was assessed at 1, 2, and 3 h after incubation of parasites with sample dilutions (from 0 to 100 μg/mL, in 10 μg intervals). The concentration that inhibited 50% of ciliate growth (GI50), in comparison with the control group, was calculated with Excel software (Microsoft Office; Microsoft, Redmond, WA, USA) by plotting the dose-response data (log dose-per cent of growth inhibition) and applying linear regression (y = mx + b) for data fitting. The values were then calculated from the equation log GI50 = (50 − b)/m, where m is the slope y1 − y2/x1 − x2, and b is the intercept of the line.

[3] = Toxicity to EPC cell line, MTT assay; type: cell-based, fish; conditions: fish
Experimental: (§1) We used the Epithelioma Papulosum Cyprini (EPC) cell line, acquired from the American Type Culture Collection (ATCC®, Manassas, VA, USA), as a control for toxicity. The cell line, kindly provided by Doctors Pereira-Dopazo and Bandin from the Aquaculture Institute of the University of Santiago de Coompostela, was cultured in MEM medium equilibrated with Hanks’ balanced salts (Gibco, Thermo Fischer Sci., Waltham, MA, USA) supplemented with 10% foetal bovine serum and 10 mL/L of 100X antibiotic–antimycotic solution. Cells were maintained subconfluent at 25 °C in a cell culture incubator and used when the confluence reached 75%.
(§2) Cell viability was then estimated by the MTT (3-(4,5-dimethylthiazol-2-yl)-2,5-diphenyl tetrazolium bromide) assay, as previously described, with minor modifications. Briefly, 100 μL of the MTT solution (1 mg/mL in phosphate-buffered saline; pH 7.2) was added to each well, and plates were incubated at 25 °C for 4 h. The yellow tetrazolium salt of MTT is reduced by mitochondrial dehydrogenases in metabolically active cells to form insoluble purple formazan crystals, which are then dissolved by the addition of DMSO (50 μL/well). Prior to the addition of MTT or DMSO, the plates were washed, and the supernatant was removed. The absorbance was measured at 540 nm in a microplate reader (Multiskan™, Thermo Fischer Sci., Waltham, MA, USA), and the relative cell viability was expressed as the mean percentage of viable cells relative to untreated cells.
(§3) In the viability assay, the possible effect of DMSO was evaluated for each compound by the inclusion of three replicate wells with MEM medium and the same DMSO concentration as in the medium. […] Control cells with only MEM were also included in the assay.

EPC cells = assay: Toxicity to EPC cell line, MTT assay; type: cell-based, fish; conditions: 24 h incubation, compound at its GI50 (24 h)
Experimental: as §1, §2, §3

P. dicentrarchi = tested on: P. dicentrarchi; design: method as in PMID 15212284, PMID 21987103, PMID 27334368; conditions: cited from earlier work
[4] = read-out: Ciliate Mortality 3 h (%), 100 μM, 3 h, culture medium, mean ± SD of three replicates
[5] = 24 h, read-out: GI50 24 h (compound concentration that inhibited 50% of parasite growth)
[6] = 24 h, read-out: Growth Inhibition 24 h (%), 100 μM, 24 h, culture medium, mean ± SD of three replicates
[7] = 48 h, read-out: GI50 48 h (compound concentration that inhibited 50% of parasite growth)

O=C(/C=C/c1ccccc1)c1ccc(O)cc1O [2′,4′-dihydroxychalcone]
LC100 (lowest concentration resulting in 100% ciliate mortality) [1]: 70 µM
Ciliate Mortality 3 h (%) [2]: 99 ± 0.71%
parasites killed after 24 h ([2]; 24 h): killed all the parasites
mortality at 100 µM [2, 4]: > 90%
GI50 [2, 5]: 7.54 ± 1.31 µM
inhibition at 100 µM [2, 6]: 100%
GI50 [2, 7]: 5.68 ± 0.16 µM
viability at 3 h [3]: 92 ± 2.5%
viability at 24 h [3]: 89.7 ± 1.4%
EPC cells killed (EPC cells): about 10%

CCCCCCc1ccc(O)cc1O [4-hexylresorcinol]
Ciliate Mortality 3 h (%) [2]: 95.3 ± 4.05%
parasites killed after 24 h ([2]; 24 h): killed all the parasites
mortality at 100 µM [2, 4]: > 90%
GI50 [2, 5]: 63.3 ± 3.61 µM
inhibition at 100 µM [2, 6]: 100%
GI50 [2, 7]: 40.8 ± 0.11 µM

O=c1cc(-c2ccccc2)oc2cc(O)ccc12 [7-hydroxyflavone]
mortality at 100 µM [2, 4]: 10 ± 1.52%
inhibition at 100 µM [2, 6]: 67.4 ± 2.4%

O=C(O)c1ccccc1 [Benzoic acid]
mortality at 100 µM ([2]; read-out: Ciliate Mortality 3 h (%)): 1.64 ± 0.56%
inhibition at 100 µM ([2]; 24 h, read-out: Growth Inhibition 24 h (%)): 17.4 ± 1.2%

O=C(O)CCCC[C@@H]1SC[C@@H]2NC(=O)N[C@@H]21 [Biotin]
mortality at 100 µM [2, 4]: 0%
inhibition at 100 µM [2, 6]: 37 ± 0.72%

CCCCOC(=O)c1ccc(O)cc1 [Butyl 4-hydroxybenzoate]
Growth Inhibition 24 h (%) ([2]; 24 h): 80.65 ± 2.42%
mortality at 100 µM [2, 4]: 52.9 ± 2.39%
GI50 [2, 5]: 43.9 ± 6.6 µM
inhibition at 100 µM [2, 6]: > 80%
GI50 [2, 7]: 29.2 ± 0.35 µM

CC12CCC(CC1=O)C2(C)C (centres unmarked) [Camphor (1r)]
Ciliate Mortality 3 h (%) [2]: 0%
Growth Inhibition 24 h (%) ([2]; 24 h): 77.42 ± 2.7%

C[C@@H]1CC[C@H]2C(C)(C)[C@H]3C[C@@]12CC[C@@]3(C)O [Cedrol]
mortality at 100 µM [2, 4]: 64.2 ± 3.7%
inhibition at 100 µM [2, 6]: 66.67 ± 0.33%

C[C@H]1[C@H]2CC[C@H]3[C@@H]4CC=C5C[C@@H](N(C)C)CC[C@]5(C)[C@H]4CC[C@]23CN1C [Conessine]
Growth Inhibition 24 h (%) ([2]; 24 h): 84.42 ± 2.42%
mortality at 100 µM [2, 4]: 50.2 ± 4.5%
GI50 [2, 5]: 12 ± 0.8 µM
inhibition at 100 µM [2, 6]: > 80%
GI50 [2, 7]: 11.2 ± 0.65 µM

O=c1ccc2ccccc2o1 [Coumarin]
mortality at 100 µM [2, 4]: 8 ± 5.9%
inhibition at 100 µM [2, 6]: 23.5 ± 4.12%

C=CCSCC=C [Diallyl sulfide]
mortality at 100 µM [2, 4]: 22.3 ± 5.1%
inhibition at 100 µM [2, 6]: 38.8 ± 7.32%

O=c1ccc2cc(O)c(O)cc2o1 [Esculetin]
mortality at 100 µM [2, 4]: 8.2 ± 5.32%
inhibition at 100 µM [2, 6]: 15.3 ± 6.32%

CC12CCC(CC1)C(C)(C)O2 [Eucalyptol]
mortality at 100 µM [2, 4]: 17 ± 8.42%
inhibition at 100 µM [2, 6]: 35.6 ± 4.21%

CC1=NCCc2c1[nH]c1cc(O)ccc21.Cl.O.O [Harmalol hydrochloride dihydrate]
Ciliate Mortality 3 h (%) [2]: 4.8 ± 1.12%
Growth Inhibition 24 h (%) ([2]; 24 h): 40.08 ± 4.9%

C[C@H]1C(=O)O[C@@H]2CCN3CC=C(COC(=O)[C@](C)(O)[C@]1(C)O)[C@H]23 [Monocrolatine]
Ciliate Mortality 3 h (%) [2]: 6.61 ± 1.06%
Growth Inhibition 24 h (%) ([2]; 24 h): 9.8 ± 2.11%

COc1cc2c(cc1OC)-c1cc3ccc(OC)c(OC)c3c[n+]1CC2 [Palmatine chloride]
mortality at 100 µM [2, 4]: 6.8 ± 0.59%
inhibition at 100 µM [2, 6]: 28.5 ± 4.25%

OCCc1ccccc1 [Phenylethyl alcohol]
mortality at 100 µM [2, 4]: 2.3 ± 1.4%
inhibition at 100 µM [2, 6]: 30.1 ± 4.63%

O=C(/C=C/C=C/c1ccc2c(c1)OCO2)N1CCCCC1 [Piperine]
Growth Inhibition 24 h (%) ([2]; 24 h): 89.04 ± 3.37%
mortality at 100 µM [2, 4]: 42.6 ± 9.1%
GI50 [2, 5]: 60.7 ± 6.31 µM
inhibition at 100 µM [2, 6]: > 80%
GI50 [2, 7]: 44 ± 1.83 µM

O=C(/C=C/c1ccc(O)c(O)c1)O[C@H](Cc1ccc(O)c(O)c1)C(=O)O [Rosmarinic acid]
mortality at 100 µM [2, 4]: 27.1 ± 7.27%
inhibition at 100 µM [2, 6]: 35 ± 5.51%

CC1(C)CCC[C@]2(C)[C@H]3CC(=O)O[C@]3(C)CC[C@@H]12 [Sclareolide]
Growth Inhibition 24 h (%) ([2]; 24 h): 71.67 ± 6.92%

CC(O)C(=O)[O-].[Na+] (centres unmarked) [Sodium lactate]
Ciliate Mortality 3 h (%) [2]: 13.76 ± 4.1%
Growth Inhibition 24 h (%) ([2]; 24 h): 28.33 ± 3.93%

O=c1ccc2ccc(O)cc2o1 [Umbelliferone]
mortality at 100 µM [2, 4]: 2.9 ± 1.89%
inhibition at 100 µM [2, 6]: 44.9 ± 7.23%

CC(=O)c1c(O)c(C)c(O)c2c1OC1=CC(=O)C(C(C)=O)C(=O)C12C (centres unmarked) [Usnic acid]
mortality at 100 µM [2, 4]: 38.3 ± 5.52%
inhibition at 100 µM [2, 6]: 68.3 ± 3.34%

COc1cc(/C=C/C(=O)CC(=O)/C=C/c2ccc(O)c(OC)c2)ccc1O [curcumin]
efficacy against P. dicentrarchi (P. dicentrarchi): effective

O=C(O[C@@H]1Cc2c(O)cc(O)cc2O[C@@H]1c1cc(O)c(O)c(O)c1)c1cc(O)c(O)c(O)c1 [epigallocatechin gallate]
efficacy against P. dicentrarchi (P. dicentrarchi): effective

O=c1c2cc(O)c(O)cc2oc2cc(O)c([C@@H]3O[C@H](CO)[C@@H](O)[C@H](O)[C@H]3O)c(O)c12 [mangiferin]
efficacy against P. dicentrarchi (P. dicentrarchi): effective

Oc1ccc(/C=C/c2cc(O)cc(O)c2)cc1 [resveratrol]
efficacy against P. dicentrarchi (P. dicentrarchi): effective

Garlicin [Garlicin 80%]
Growth Inhibition 24 h (%) ([2]; 24 h): 42.47 ± 5.62%
